Measured values taken from patent US20260034112A1, “MULTI-CYCLIC IRAK1 AND IRAK4 INHIBITING COMPOUNDS AND USES THEREOF” (CHILDREN'S HOSPITAL MEDICAL CENTER, priority 2022, published 2026).
pIC50: −log10 of the molar value. Like-named read-outs stand apart in the source and are kept apart here.

Key:
[1] = test system: IRAK1 phosphorylation in MDS/AML cells; assay: Immunoblotting for phospho-IRAK1; assay type: cell-based, human; conditions: MDSL cells and patient-derived AML(1714), 10 μM, 24 hours
[2] = test system: NF-kB activity upon TLR2 stimulation with PAM3CSK4 in THP1-Blue NF-kB SEAP reporter cells; assay: THP1-Blue NF-kB SEAP reporter assay, TLR2 stimulation with PAM3CSK4; assay type: cell-based, human; conditions: for pIC50: read-out: IC50 vs. Pam3CSK4 (TLR2-mediated NF-kB activation)
[3] = early phase trials, cited from earlier work
THP1 and MDSL cells = assay: Growth curves with IRAK4 inhibitors; assay type: cell-based, human; conditions: IRAK1KO versus WT MDSL (10 μM) and THP1 (20 μM)
[4] = test system: NF-kB activity upon IL-1β stimulation (IL-1R) in THP1 NF-kB reporter cells; assay: THP1 NF-kB reporter assay, IL-1β stimulation; assay type: cell-based, human
[5] = Homo sapiens, THP-1, THP1 NF-kB reporter cells
[6] = THP1 NF-kB reporter cells, result in words

SMILES | IRAK1 phosphorylation [1] | pIC50 [2, 5] | Complete or partial response rates ([3]; HR-MDS and AML patients) | AML patients with spliceosome mutations reaching CR or CRh [3] | HR-MDS patients achieving a CR [3] | IC50 ([2]; Homo sapiens, THP-1, Table 1, unit nM, read-out: THP-1 NFkB PAM IC50) | pIC50 ([2]; THP1 NF-kB reporter cells) | Suppression of NF-kB signaling through TLR2 [2, 6] | LOG (PAM) ([2]; Table 1, log of PAM IC50) | Sensitivity of IRAK1KO MDS/AML cells (growth curves) (THP1 and MDSL cells) | pIC50 ([4]; Homo sapiens, THP-1, THP1 NF-kB reporter cells, read-out: IC50 vs. IL-1β (NF-kB activation)) | IC50 ([4]; Homo sapiens, THP-1, Table 1, unit nM, read-out: THP-1 NFkB IL1B IC50) | Span (extent of suppression of signaling through the IL-1R) ([4]; THP1 NF-kB reporter cells, IL-1β) | Suppression of NF-kB signaling through the IL-1 receptor [4, 6] | LOG (IL1B) ([4]; Table 1, log of IL1B IC50)
Cc1cc(-c2nc(C(=O)Nc3cc4oc(N5CCOCC5)nc4nc3N3CC[C@@H](O)C3)co2)ccn1 [CA-4948, emavusertib] | increased IRAK1 phosphorylation | 6.30 | ~40% | 40% | 57% | – | – | – | – | – | – | – | – | – | –
CC[C@@H]1[C@H](F)C(=O)N[C@@H]1COc1nccc2cc(C(N)=O)c(OC)cc12 [PF-06650833, Zimlovisertib] | – | 8.14 | – | – | – | 496 nM | 8.15 | fully suppress | 2.70 | A similar effect was also observed | 8.24 | 678 nM | 75% | do not fully suppress | 2.83
